biological target: human PD-L1 (Homo sapiens (Human), UniProt Q9NZQ7); assay: T cell activation luciferase reporter cell culture system (T Cell Activation Assay); format: cell-based; details: luciferase reporter assay; PD-L1 aAPC/CHO-K1 cells with PD-1 effector Jurkat T cells
Sequence (Q9NZQ7 19-290): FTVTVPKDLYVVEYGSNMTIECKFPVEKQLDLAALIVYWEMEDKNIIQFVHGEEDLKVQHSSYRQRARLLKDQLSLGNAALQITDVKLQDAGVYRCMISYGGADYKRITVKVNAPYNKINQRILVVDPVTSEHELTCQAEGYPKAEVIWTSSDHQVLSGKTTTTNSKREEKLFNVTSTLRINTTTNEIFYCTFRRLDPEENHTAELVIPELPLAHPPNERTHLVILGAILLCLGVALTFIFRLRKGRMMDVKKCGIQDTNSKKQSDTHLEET

Structure (SMILES) | EC50 [nM]
COc1cc(-c2nccc(-c3cccc(-c4ccc5c(CNC6CCS(=O)(=O)CC6)cn(C)c5n4)c3Cl)c2Cl)ccc1CNC[C@@H]1CCC(=O)N1 [Cmpd 60, (S)-5-(((4-(3-chloro-4-(2-chloro-3-(3-(((1,1-dioxidotetrahydro-2H-thiopyran-4-yl)amino)methyl)-1-methyl-1H-pyrrolo[2,3-b]pyridin-6-yl)phenyl)pyridin-2-yl)-2-methoxybenzyl)amino)methyl)pyrrolidin-2-one] | 44.6
COc1cc(-c2nccc(-c3cccc(-c4ccc(CNC[C@@H]5CCC(=O)N5)c(OC)n4)c3Cl)c2Cl)cc2c1CN(C[C@@H]1CCC(=O)N1)CC2 [Cmpd 6, (S)-5-((((6-(2-chloro-3-(3-chloro-2-(8-methoxy-2-(((S)-5-oxopyrrolidin-2-yl)methyl)-1,2,3,4-tetrahydroisoquinolin-6-yl)pyridin-4-yl)phenyl)-2-methoxypyridin-3-yl)methyl)amino)methyl)pyrrolidin-2-one] | 22.3
COc1cc(-c2nccc(-c3cccc(-c4ccc(CN5CC6(CNC(=O)C6)C5)c(OC)n4)c3C)c2Cl)ccc1CN1CC2(CNC(=O)C2)C1 [Example 408, 2-((6-(3-(3-chloro-2-(3-methoxy-4-((7-oxo-2,6-diazaspiro[3.4]octan-2-yl)methyl)phenyl)pyridin-4-yl)-2-methylphenyl)-2-methoxypyridin-3-yl)methyl)-2,6-diazaspiro[3.4]octan-7-one] | 39.4
CNCc1ccc(-c2nccc(-c3cccc(-c4ccc(CNC)c(OC)n4)c3C)c2C)cc1OC [Example 362, 1-(2-Methoxy-4-(4-(3-(6-methoxy-5-((methylamino)methyl)pyridin-2-yl)-2-methylphenyl)-3-methylpyridin-2-yl)phenyl)-N-methylmethanamine] | 261
COc1nc(-c2cccc(-c3ccnc(-c4cnn(CC5CNC5)c4)c3Cl)c2Cl)ccc1CNC[C@@H]1CCC(=O)N1 [Cmpd 120, (S)-5-((((6-(3-(2-(1-(azetidin-3-ylmethyl)-1H-pyrazol-4-yl)-3-chloropyridin-4-yl)-2-chlorophenyl)-2-methoxypyridin-3-yl)methyl)amino)methyl)pyrrolidin-2-one] | 972
COc1cc(-c2nccc(-c3nccc(-c4ccc(CNC5CCN(C(C)=O)CC5)c(OC)n4)c3Cl)c2Cl)ccc1CNC1CCN(C(C)=O)CC1 [Example 668, 1-(4-((4-(5-(((1-acetylpiperidin-4-yl)amino)methyl)-3′,3″-dichloro-6-methoxy-[2,4′:2′,4″-terpyridin]-2″-yl)-2-methoxybenzyl)amino)piperidin-1-yl)ethan-1-one] | 244
COc1nc(-c2cccc(-c3ccnc(-c4cc(OC)c5nc(CN[C@H]6CC[C@H](O)CC6)cn5c4)c3Cl)c2Cl)ccc1CN[C@H]1CC[C@H](O)CC1 [Example 453, (1r,4r)-4-(((6-(2-Chloro-3-(3-chloro-2-(2-((((1r,4r)-4-hydroxycyclohexyl)amino)methyl)-8-methoxyimidazo[1,2-a]pyridin-6-yl)pyridin-4-yl)phenyl)-2-methoxypyridin-3-yl)methyl)amino)cyclohexan-1-ol] | 270
COc1nc(-c2cccc(-c3ccnc(-c4cc(OC)c5nc(CN6CC(C(=O)O)C6)cn5c4)c3Cl)c2Cl)ccc1CNC[C@@H]1CCC(=O)N1 [Example 350, (S)-1-((6-(3-Chloro-4-(2-chloro-3-(6-methoxy-5-((((5-oxopyrrolidin-2-yl)methyl)amino)methyl)pyridin-2-yl)phenyl)pyridin-2-yl)-8-methoxyimidazo[1,2-a]pyridin-2-yl)methyl)azetidine-3-carboxylic acid] | 89.2
COc1cc(-c2nccc(-c3cccc(NC(=O)c4ccc(CNCCO)cn4)c3Cl)c2Cl)ccc1CNC1CCN(C(C)=O)CC1 [Example 733, N-(3-(2-(4-(((1-Acetylpiperidin-4-yl)amino)methyl)-3-methoxyphenyl)-3-chloropyridin-4-yl)-2-chlorophenyl)-5-(((2-hydroxyethyl)amino)methyl)picolinamide] | 28.6
COc1nc(-c2ccnc(-c3cccc4c3CC[C@@H]4Oc3nc(OC)c(CNC4CCN(C(C)=O)CC4)cc3C(F)(F)F)c2Cl)ccc1CNC[C@@H]1CCC(=O)N1 [Example 527, (S)-5-((((2′-((S)-1-((5-(((1-acetylpiperidin-4-yl)amino)methyl)-6-methoxy-3-(trifluoromethyl)pyridin-2-yl)oxy)-2,3-dihydro-1H-inden-4-yl)-3′-chloro-6-methoxy-[2,4′-bipyridin]-5-yl)methyl)amino)methyl)pyrrolidin-2-one] | 14.4
COc1cc(-c2nccc(-c3cccc(-c4ccc(CNC5CCN(CC(F)(F)F)CC5)c(OC)n4)c3Cl)c2Cl)ccc1CNC1CCN(CC(F)(F)F)CC1 [Example 437, N-((6-(2-Chloro-3-(3-chloro-2-(3-methoxy-4-(((1-(2,2,2-trifluoroethyl)piperidin-4-yl)amino)methyl)phenyl)pyridin-4-yl)phenyl)-2-methoxypyridin-3-yl)methyl)-1-(2,2,2-trifluoroethyl)piperidin-4-amine] | 157
COc1nc(-c2ccnc(-c3cccc4c3CC[C@@H]4Oc3nc(OC)c(CNC4CCOCC4)cc3C(F)(F)F)c2Cl)ccc1CNC[C@@H]1CCC(=O)N1 [Example 608, (S)-5-((((3′-Chloro-6-methoxy-2′-((S)-1-((6-methoxy-5-(((tetrahydro-2H-pyran-4-yl)amino)methyl)-3-(trifluoromethyl)pyridin-2-yl)oxy)-2,3-dihydro-1H-inden-4-yl)-[2,4′-bipyridin]-5-yl)methyl)amino)methyl)pyrrolidin-2-one] | 22.4
COc1nc(-c2cccc(-c3ccnc(-c4cc(OC)c5nc(CN6CCOCC6)cn5c4)c3Cl)c2Cl)ccc1CNC1CCN(C(C)=O)CC1 [Example 475, 1-(4-(((6-(2-Chloro-3-(3-chloro-2-(8-methoxy-2-(morpholinomethyl)imidazo[1,2-a]pyridin-6-yl)pyridin-4-yl)phenyl)-2-methoxypyridin-3-yl)methyl)amino)piperidin-1-yl)ethan-1-one] | 3770
COc1cc(-c2nccc(-c3cccc(-c4ccc(CN5CC6(CC(=O)N(C)C6)C5)c(OC)n4)c3Cl)c2Cl)ccc1CN1CC2(CC(=O)N(C)C2)C1 [Example 571, 2-(4-(3-chloro-4-(2-chloro-3-(6-methoxy-5-((6-methyl-7-oxo-2,6-diazaspiro[3.4]octan-2-yl)methyl)pyridin-2-yl)phenyl)pyridin-2-yl)-2-methoxybenzyl)-6-methyl-2,6-diazaspiro[3.4]octan-7-one] | 87.5
COc1nc(-c2cccc(-c3ccnc(-c4ccc5c(CNC[C@@H]6CCO6)nn(C)c5c4)c3Cl)c2Cl)ccc1CNC[C@@H]1CCC(=O)N1 [Example 235, (S)-5-((((6-(2-Chloro-3-(3-chloro-2-(1-methyl-3-(((((S)-oxetan-2-yl)methyl)amino)methyl)-1H-indazol-6-yl)pyridin-4-yl)phenyl)-2-methoxypyridin-3-yl)methyl)amino)methyl)pyrrolidin-2-one] | 65.1
COc1cc(-c2nccc(-c3cccc(-c4ccc(CNC5CCN(C(C)=O)CC5)c(OC)n4)c3Cl)c2Cl)ccc1CN1CC[C@H](C(=O)OC(C)C)C1 [Example 245, Isopropyl (S)-1-(4-(4-(3-(5-(((1-acetylpiperidin-4-yl)amino)methyl)-6-methoxypyridin-2-yl)-2-chlorophenyl)-3-chloropyridin-2-yl)-2-methoxybenzyl)pyrrolidine-3-carboxylate] | 187
COc1cc(-c2nccc(-c3cccc(-c4ccc(CN5CC[C@H](O)C5)c(OC)n4)c3Cl)c2Cl)ccc1CN1CC[C@H](O)C1 [Example 435, (S)-1-((6-(2-Chloro-3-(3-chloro-2-(4-(((S)-3-hydroxypyrrolidin-1-yl)methyl)-3-methoxyphenyl)pyridin-4-yl)phenyl)-2-methoxypyridin-3-yl)methyl)pyrrolidin-3-ol] | 9.95
COc1cc(-c2nccc(-c3cccc(-c4ccc(CN[C@H]5CC[C@H](O)CC5)c(OC)n4)c3Cl)c2Cl)ccc1CN1CC2(CNC(=O)C2)C1 [Example 515, 2-(4-(3-Chloro-4-(2-chloro-3-(5-((((1r,4r)-4-hydroxycyclohexyl)-amino)methyl)-6-methoxypyridin-2-yl)phenyl)pyridin-2-yl)-2-methoxybenzyl)-2,6-diazaspiro[3.4]octan-7-one] | 17.8
COc1nc(-c2cccc(-c3ccnc(-c4cc(OC)c5nc(CN6CC(C)(O)C6)cn5c4)c3Cl)c2Cl)ccc1CN1CC(C)(O)C1 [Example 455, 1-((6-(2-Chloro-3-(3-chloro-2-(2-((3-hydroxy-3-methylazetidin-1-yl)methyl)-8-methoxyimidazo[1,2-a]pyridin-6-yl)pyridin-4-yl)phenyl)-2-methoxypyridin-3-yl)methyl)-3-methylazetidin-3-ol] | 174
COc1cc(-c2nccc(-c3cccc(-c4ccc(CN5CCC(NC(C)=O)CC5)c(OC)n4)c3C)c2C)ccc1CN1CCC(NC(C)=O)CC1 [Example 461, N-(1-((6-(3-(2-(4-((4-Acetamidopiperidin-1-yl)methyl)-3-methoxyphenyl)-3-methylpyridin-4-yl)-2-methylphenyl)-2-methoxypyridin-3-yl)methyl)piperidin-4-yl)acetamide] | ≥ 10000
COc1cc(-c2nccc(-c3cccc(NC(=O)c4ccc(CNCCO)cn4)c3Cl)c2Cl)ccc1CN1CC2(CNC(=O)C2)C1 [Example 754, N-(2-Chloro-3-(3-chloro-2-(3-methoxy-4-((7-oxo-2,6-diazaspiro[3.4]octan-2-yl)methyl)phenyl)pyridin-4-yl)phenyl)-5-(((2-hydroxyethyl)amino)methyl)picolinamide] | 9.1
COc1cc(-c2nccc(-c3cccc(-c4ccc(CNC[C@@H]5CCC(=O)N5)c(OC)n4)c3Cl)c2Cl)cc(F)c1CNC[C@H](C)O [Cmpd 80, (S)-5-((((6-(2-chloro-3-(3-chloro-2-(3-fluoro-4-((((S)-2-hydroxypropyl)amino)methyl)-5-methoxyphenyl)pyridin-4-yl)phenyl)-2-methoxypyridin-3-yl)methyl)amino)methyl)pyrrolidin-2-one] | 46.2
